This note sets out measurements from PubChem BioAssay (NCI).

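Cultured in 96-well plates, cells were exposed to test compound for 48 hours across five concentrations. TGI is the concentration that stops growth completely.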 Where a SMILES comes first, the peptide text is derived from it. [ ]: non-standard residue; d: D form. The star is where a group is joined. Phe(4-NO2) = N[CH](Cc1ccc([N+](=O)[O-])cc1)C(=O)O; Boc = CC(C)(C)OC(=O)*

Assay in all cases: growth of human tumour cells (NCI), 48 h
For assay [1], the system named is KM12 colon.
The test system of assay [2] is MOLT-4 leukemia.
Assay [3] deals with TK-10 renal.
For assay [4], the system named is UACC-62 melanoma.
Assay [5] deals with M14 melanoma.
Assay [6] has as its system NCI-H23 lung.
The subject of assay [7] is SNB-19 CNS.
Assay [8] has as its system HOP-62 NSCLC.
Assay [9] relates to SW-620 colon.
Assay [10] concerns SK-MEL-2 melanoma.

In the case of `CCOC(=O)CCC(NC(=O)C(Cc1ccc([N+](=O)[O-])cc1)NC(=O)OC(C)(C)C)C(=O)NC(CCC(=O)OCC)C(=O)OCC` (stereo not given) (Boc-[Phe(4-NO2)]-Glu(OEt)-Glu(OEt)-OEt; configuration not given here), the TGI turned out to be 28.1 µM in assay [1]; 6.62 µM in assay [2]; 30.1 µM in assay [3]; 32.4 µM in [4]; 35.9 µM in assay [5]; 31.8 µM in assay [6]. Moreover, the TGI is > 100 µM in [7], 67.4 µM in assay [8], 40.2 µM in [9] and 25.9 µM in assay [10].
`Cc1cc2nc3ccccc3n2c2ccccc12`: the TGI in assay [1], in assay [2], in assay [3], in assay [4], in [5] and in assay [6] was > 10 µM in each case. Besides, the TGI in assay [7], in [8], in assay [9] and in [10] was > 10 µM throughout.
Consider `CC(c1ccccc1)n1cncc1C(=O)NN1CCN(C)CC1` (stereo not given), for which the TGI in assay [1], in [2], in [3], in [4], in assay [5] and in [6] was > 10 µM throughout. The TGI in assay [7], in assay [8], in [9] and in [10] was > 10 µM throughout.
Consider `COC(=O)c1onc(C2OC(C)(C)OC2C(O)COC(c2ccccc2)(c2ccccc2)c2ccccc2)c1C(=O)OC` (stereo not given), for which the TGI in [1], in assay [2], in [3], in [4], in assay [5] and in [6] was > 100 µM each time. The TGI in assay [7], in assay [8], in assay [9] and in assay [10] was > 100 µM throughout.
In the case of `C=CC(C)(C)/C=C/c1ccc(O)cc1`, the TGI in assay [1], in assay [2], in [3], in [4], in assay [5] and in [6] was > 100 µM throughout. Moreover, the TGI in [7] is > 100 µM; in [8], > 100 µM; in assay [9], > 100 µM; in assay [10], 60.5 µM.
As to `CC(CCc1nc2ccccc2s1)(c1ccc(O)cc1)c1ccc(O)cc1`, the TGI came out at 33.8 µM in assay [1]; 42.9 µM in assay [2]; 34.1 µM in assay [3]; 29.4 µM in assay [4]; 33.4 µM in assay [5]; 32 µM in [6]. For the same compound, the TGI in assay [7] turned out to be 34.8 µM; in assay [8] it was 31.5 µM; in assay [9], 43.5 µM; in assay [10] it was 31.4 µM.
`Oc1ccc2ccccc2c1OCc1nnc(CCCCCCCCc2nnc(COc3c(O)ccc4ccccc34)n2Nc2ccccc2)n1Nc1ccccc1`: the TGI in assay [1] was 33 µM; in [2], > 100 µM; in assay [3], > 100 µM; in [4], 26.6 µM; in [5], 44.7 µM; in assay [6], > 75.2 µM. For the same compound, the TGI in [7] is > 100 µM; in assay [8], 41.9 µM; in assay [9] it was > 100 µM; in assay [10] it was > 76.6 µM.
As for `Cc1cc(C)nc(NS(=O)(=O)c2ccc(NNc3c4ccccc4nc4c(C(=O)Nc5ccc(S(=O)(=O)Nc6cc(C)on6)cc5)cccc34)cc2)n1`, the TGI is > 100 µM in [1]; 82.2 µM in assay [2]; > 100 µM in [3]; > 100 µM in [4]; > 100 µM in assay [5]; > 100 µM in assay [6]. Besides, the TGI was > 100 µM in assay [7], > 100 µM in assay [8], > 100 µM in [9] and 62.5 µM in assay [10].
For the compound `O=C1c2ccccc2C2(c3ccc(F)cc3)NCCN12` (stereo not given), the TGI in assay [1], in [2], in assay [3], in assay [4], in assay [5] and in assay [6] was > 100 µM throughout. The TGI in assay [7], in assay [8], in assay [9] and in assay [10] was > 100 µM in each case.
On to `Cc1cc(C)c2c(c1)C/C(=C\c1cccc(C)c1C(=O)O)C2=O`, for which the TGI in [1], in assay [2], in [3], in [4], in assay [5] and in assay [6] was > 100 µM each time. Besides, the TGI in assay [7], in [8], in [9] and in assay [10] was > 100 µM each time.
Turning to `c1cc2cc3c4c5c(cc6ccc7cc8cc9c%10c8c8c7c6c5c8c5c%10c(c1C9N1CCOCCOCCOCCOCCOCC1)c2c45)C3` (stereo not given), the TGI in assay [1], in [2], in [3], in [4], in assay [5] and in assay [6] was > 100 µM throughout. Besides, the TGI in [7], in assay [8], in assay [9] and in [10] was > 100 µM in each case.
Regarding `Clc1ccc(-c2nn3c(COc4cccc(OCc5nnc6sc(-c7ccc(Cl)cc7)nn56)c4)nnc3s2)cc1`, the TGI in [1] was > 100 µM; in assay [2] it was 74.6 µM; in assay [3], > 100 µM; in assay [4], 77.1 µM; in assay [5], 75.9 µM; in assay [6], 71.3 µM. Further, the TGI in assay [7], in [8], in assay [9] and in assay [10] was > 100 µM throughout.
`Nc1ccc2c(=O)cc(-c3ccc(Br)s3)[nH]c2n1`: the TGI in [1] is > 100 µM; in assay [2], 13.2 µM; in assay [3] it was > 100 µM; in [4], > 100 µM; in [5] it was 45.3 µM; in assay [6] it was > 23.4 µM. Further, the TGI in [7], in [8], in [9] and in assay [10] was > 100 µM in each case.
With `O=c1cc(N2CCOCC2)n2c(ccc3ccccc32)n1`, the TGI in [1], in assay [2], in assay [3], in [4], in assay [5] and in [6] was > 100 µM each time. For the same compound, the TGI in assay [7], in assay [8], in assay [9] and in [10] was > 100 µM in each case.
Consider `O=c1[nH]n(CCc2ccccc2CCl)c2ccc([N+](=O)[O-])cc12`, for which the TGI in assay [1], in assay [2], in [3], in assay [4], in [5] and in assay [6] was > 100 µM each time. Also, the TGI in [7], in assay [8], in assay [9] and in assay [10] was > 100 µM in each case.
Regarding `CC(=O)/C=C/c1ccccc1`, the TGI in assay [1] was 97.9 µM; in [2], > 100 µM; in assay [3], > 100 µM; in assay [4] it was > 100 µM; in assay [5] it was 85 µM; in assay [6] it was 85.5 µM. In addition, the TGI in [7] is > 100 µM; in [8], 93.9 µM; in assay [9], > 100 µM; in assay [10], > 100 µM.
As to `COc1cccc(NC(=O)CC(=O)n2nc(-c3ccccc3)c(N=Nc3ccc(Cl)cc3)c2-c2ccccc2)c1`, the TGI in assay [1] is > 81.9 µM; in assay [2], > 59.3 µM; in [3], > 100 µM; in assay [4], > 72.7 µM; in assay [5], 42.3 µM; in assay [6], > 78.1 µM. The TGI in [7] is > 100 µM; in [8] it was 90.9 µM; in [9], > 100 µM; in assay [10], 89.1 µM.
As to `CSc1nnc(SCc2nn3c(=O)cc(C)nc3s2)s1`, the TGI in [1], in assay [2], in assay [3], in assay [4], in assay [5] and in assay [6] was > 100 µM in each case. In addition, the TGI in assay [7], in [8], in [9] and in assay [10] was > 100 µM throughout.
In the case of `Cc1cc(S(=O)(=O)Nc2nc3cscc3c(=O)n2N)c(S)cc1Cl`, the TGI in assay [1], in assay [2], in assay [3], in assay [4], in [5] and in assay [6] was > 100 µM throughout. Further, the TGI in assay [7], in assay [8], in [9] and in [10] was > 100 µM each time.
